Measurements from US9745295B2, “Thiazole-substituted aminoheteroaryls as spleen tyrosine kinase inhibitors” (Merck Sharp & Dohme Corp., priority 2013, dated 2017).

molecular target: T1, recombinant human GST-SYK (Homo sapiens, UniProt P43405); assay: Homogeneous Time-Resolved Fluorescence (HTRF) assay for the recombinant human Syk enzyme; type: biochemical; settings: recombinant human GST-SYK 5 pM, ATP 25 μM, read-out: rhSYK IC50
T1 construct: purchased Carna Biosciences 08-176
Protocol: Homogeneous Time-Resolved Fluorescence (HTRF) Assay for the Recombinant Human Syk Enzyme
A recombinant GST-hSYK fusion protein was used to measure potency of compounds to inhibit human Syk activity. The recombinant human GST-SYK (Carna Biosciences #08-176) (5 pM final concentration) was incubated with various concentrations of the inhibitor diluted in DMSO (0.1% final concentration) for 10 minutes at room temperature in 15 mM Tris-HCl (pH 7.5), 0.01% tween 20, 2 mM DTT in 384 well plate format. To initiate the reaction the biotinylated substrate peptide (250 nM final concentration) that contains the phosphorylation site for Syk was added with magnesium (5 mM final concentration) and ATP (25 μM final concentration). Final volume of the reaction was 10 μL. Phosphorylation of the peptide was allowed to proceed for 45′ at room temperature. To quench the reaction and detect the phosphorylated product, 2 nM of a Europium-anti-phosphotyrosine antibody (Perkin Elmer #AD0161) and 70 nM SA-APC (Perkin-Elmer #CR130-100) were added together in 15 mM Tris pH 7.5, 40 mM EDTA, 0.01% tween 20. Final volume of the quenching solution was 10 μL.
The resulting HTRF signal was measured after 30 minutes on an EnVision (Perkin-Elmer) reader using a time-resolved fluorescence protocol. Table A below lists activities as IC50 values (nM) for representative compounds of the invention.

Compound	IC50
Cc1cc(Nc2cc(C(F)(F)F)ncn2)nc(-c2cnc(C3(O)CCC(C(=O)O)C(C)(C)C3)s2)c1 (stereo not shown) [Example 1.2, 4-hydroxy-2,2-dimethyl-4-[5-(4-methyl-6-{[6-(trifluoromethyl)pyrimidin-4-yl]amino}pyridin-2-yl)-1,3-thiazol-2-yl]cyclohexane-carboxylic acid]	1.17 nM
COC(=O)C1CCC(O)(c2ncc(-c3cc(Nc4nccc(C(F)(F)F)n4)cc(C)n3)s2)CC1(C)C (stereo not shown) [Example 1.8, methyl 4-hydroxy-2,2-dimethyl-4-[5-(6-methyl-4-{[4-(trifluoromethyl)pyrimidin-2-yl]amino}pyridin-2-yl)-1,3-thiazol-2-yl] cyclohexane-carboxylate]	8.37 nM
COC(=O)C1CCC(O)(c2ncc(-c3nc(C)cc(Nc4cc(C(F)(F)F)ccn4)n3)s2)CC1(C)C (stereo not shown) [Example 1.10, methyl 4-hydroxy-2,2-dimethyl-4-[5-(4-methyl-6-{[4-(trifluoromethyl)pyridin-2-yl]amino}pyrimidin-2-yl)-1,3-thiazol-2-yl]cyclohexane-carboxylate]	8.85 nM
COC(=O)C1CCC(O)(c2ncc(-c3cc(Nc4nccc(OC(C)C)n4)cc(C)n3)s2)CC1(C)C (stereo not shown) [Example 1.15, methyl 4-hydroxy-2,2-dimethyl-4-[5-(6-methyl-4-{[4-(1-methylethoxy)pyrimidin-2-yl]amino}pyridin-2-yl)-1,3-thiazol-2-yl] cyclohexane-carboxylate]	10.4 nM
Cc1cc(Nc2nccc(OC(C)C)n2)cc(-c2cnc(C3(O)CCC(C(=O)O)C(C)(C)C3)s2)n1 (stereo not shown) [Example 1.16, 4-hydroxy-2,2-dimethyl-4-[5-(6-methyl-4-{[4-(1-methylethoxy)pyrimidin-2-yl]amino}pyridin-2-yl)-1,3-thiazol-2-yl] cyclohexane-carboxylic acid]	0.697 nM
Cc1cc(Nc2nccc(C(F)(F)F)n2)cc(-c2cnc(C3(O)CCC3)s2)n1 [Example 2.1, 1-(5-(6-Methyl-4-((4-(trifluoromethyl)pyrimidin-2-yl)amino)pyridin-2-yl)thiazol-2-yl)cyclobutanol]	26.4 nM
Cc1cc(Nc2ncnc(C)n2)cc(-c2cnc([C@@]3(O)CC[C@H](C(=O)O)C(C)(C)C3)s2)c1 [Example 2.2, (1S,4R)-4-hydroxy-2,2-dimethyl-4-(5-{3-methyl-5-[(4-methyl-1,3,5-triazin-2-yl)amino]phenyl}-1,3-thiazol-2-yl)cyclohexanecarboxylic acid]	52.3 nM
OC1(c2ncc(-c3cncc(Nc4nccc(C(F)(F)F)n4)c3)s2)CCC1 [Example 2.3]	189 nM

More lines, now with the values ahead:

IC50	Compound
6.91 nM	Cc1cc(Nc2nccc(C)n2)cc(-c2cnc(C3(O)CCC(C(=O)O)C(C)(C)C3)s2)n1 (single isomer, unassigned) [Example 4.16, (1S,4R or 1R,4S)-4-hydroxy-2,2-dimethyl-4-(5-{6-methyl-4-[(4-methylpyrimidin-2-yl)amino]pyridin-2-yl}-1,3-thiazol-2-yl)cyclohexane-carboxylic acid]
1.37 nM	Cc1cc(Nc2nccc(C(F)F)n2)cc(-c2cnc(C(C)(O)C3CCC(C(=O)O)CC3)s2)n1 (single isomer, unassigned) [Example 4.17, (trans)-4-((R or S)-{1-[5-(4-{[4-(difluoromethyl)pyrimidin-2-yl]amino}-6-methylpyridin-2-yl)-1,3-thiazol-2-yl]-1-hydroxyethyl}cyclo-hexanecarboxylic acid]
5.55 nM	COc1cc(Nc2nccc(C(F)(F)F)n2)cc(-c2cnc(C3(O)CCC(C(=O)O)C(C)(C)C3)s2)n1 (single isomer, unassigned) [Example 4.18, (1S,4R or 1R,4S)-4-hydroxy-4-[5-(6-methoxy-4-{[4-(trifluoromethyl)pyrimidin-2-yl]amino}pyridin-2-yl)-1,3-thiazol-2-yl]-2,2-dimethylcyclohexane carboxylic acid]
4.13 nM	COc1ncc(Nc2nccc(C(F)(F)F)n2)cc1-c1cnc([C@@]2(O)CC[C@H](C(=O)O)C(C)(C)C2)s1 (single isomer, unassigned) [Example 4.19, (1S,4R or 1R,4S)-4-hydroxy-4-[5-(2-methoxy-5-{[4-(trifluoromethyl)pyrimidin-2-yl]amino}pyridin-3-yl)-1,3-thiazol-2-yl]-2,2-dimethylcyclohexane carboxylic acid]
4.4 nM	Cc1cc(Nc2ncc(F)c(C)n2)cc(-c2cnc(C(C)(O)[C@H]3CC[C@H](C(=O)O)CC3)s2)n1 (single isomer, unassigned) [Example 4.20, (trans)-4-((R or S)-1-(5-{4-[(5-fluoro-4-methylpyrimidin-2-yl)amino]-6-methylpyridin-2-yl}-1,3-thiazol-2-yl)-1-hydroxyethyl]cyclo-hexanecarboxylic acid]
2.12 nM	COc1cc(Nc2nccc(C(F)(F)F)n2)cc(-c2cnc(C(C)(O)[C@H]3CC[C@H](C(=O)O)CC3)s2)n1 (single isomer, unassigned) [Example 4.21, (trans)-4-((R or S)-1-hydroxy-1-[5-(6-methoxy-4-{[4-(trifluoromethyl)pyrimidin-2-yl]amino}pyridin-2-yl)-1,3-thiazol-2-yl]ethyl}cyclohexane carboxylic acid]
7.15 nM	COc1cc(Nc2nccc(C)n2)cc(-c2cnc(C(C)(O)[C@H]3CC[C@H](C(=O)O)CC3)s2)n1 (single isomer, unassigned) [Example 4.22, (trans)-4-((R or S)-1-hydroxy-1-(5-{6-methoxy-4-[(4-methylpyrimidin-2-yl)amino]pyridin-2-yl}-1,3-thiazol-2-yl)ethyl]cyclohexane carboxylic acid]
5.2 nM	CC(O)(c1ncc(-c2cc(Nc3nccc(C(F)(F)F)n3)cc(Cl)n2)s1)[C@H]1CC[C@H](C(=O)O)CC1 (single isomer, unassigned) [Example 4.23, (trans)-4-((R or S)-1-[5-(6-chloro-4-{[4-(trifluoromethyl)pyrimidin-2-yl]amino}pyridin-2-yl)-1,3-thiazol-2-yl]-1-hydroxyethyl} cyclohexanecarboxylic acid]
17.6 nM	COC(=O)c1ccc2c(c1)CCCC2(O)c1ncc(-c2cc(Nc3nccc(C(F)(F)F)n3)cc(C)n2)s1 (single isomer, unassigned) [Example 4.24, (R or S)-methyl 5-hydroxy-5-[5-(6-methyl-4-{[4-(trifluoromethyl)pyrimidin-2-yl]amino}pyridin-2-yl)-1,3-thiazol-2-yl]-5,6,7,8-tetrahydronaphthalene-2-carboxylate]
0.397 nM	Cc1cc(Nc2nccc(C(F)(F)F)n2)cc(-c2cnc(C3(O)CCCc4cc(C(=O)O)ccc43)s2)n1 (single isomer, unassigned) [Example 4.25, (R or S)-5-hydroxy-5-[5-(6-methyl-4-{[4-(trifluoromethyl)pyrimidin-2-yl]amino}pyridin-2-yl)-1,3-thiazol-2-yl]-5,6,7,8-tetrahydronaphthalene-2-carboxylic acid]
1010 nM	Cc1cc(Nc2nccnn2)cc(-c2cnc(C3(O)CCC3)s2)c1 [Example 3.2, 1-{5-[3-methyl-5-(1,2,4-triazin-3-ylamino)phenyl]-1,3-thiazol-2-yl}cyclobutanol]
111 nM	CCOc1cc(Nc2nccc(C(F)(F)F)n2)cc(-c2cnc(C3(O)CCC3)s2)n1 [Example 4.1, 1-(5-(6-Ethoxy-4-((4-(trifluoromethyl)pyrimidin-2-yl)amino)pyridin-2-yl)thiazol-2-yl)cyclobutanol]
35.2 nM	OC1(c2ncc(-c3cccc(Nc4cnccn4)n3)s2)CCC1 [Example 4.2, 1-{5-[6-(pyrazin-2-ylamino)pyridin-2-yl]-1,3-thiazol-2-yl}cyclobutanol]
43.4 nM	Cc1cc(-c2cnc(C3(O)CCC3)s2)nc(Nc2cc(C(F)(F)F)ccn2)n1 [Example 4.4, 1-[5-(6-methyl-2-{[4-(trifluoromethyl)pyridin-2-yl]amino}pyrimidin-4-yl)-1,3-thiazol-2-yl]cyclobutanol]
4.39 nM	Cc1cc(Nc2cc(C(F)(F)F)ccn2)nc(-c2cnc(C3(O)CCC3)s2)n1 [Example 4.5, 1-[5-(4-methyl-6-{[4-(trifluoromethyl)pyridin-2-yl]amino}pyrimidin-2-yl)-1,3-thiazol-2-yl]cyclobutanol]
43.6 nM	Cc1ccnc(Nc2ccc(-c3cnc(C4(O)CCC(C(=O)O)CC4)s3)cc2C)c1 (stereo not drawn) [Example 4.13, cis-4-hydroxy-4-(5-{3-methyl-4-[(4-methylpyridin-2-yl)amino]phenyl}-1,3-thiazol-2-yl)cyclohexanecarboxylic acid]
0.0959 nM	Cc1cc(Nc2nccc(C(F)(F)F)n2)cc(-c2cnc(C3(O)CCc4cc(C(=O)O)ccc43)s2)n1 [Example 4.26, (1R, or 1S)-1-hydroxy-1-[5-(6-methyl-4-{[4-(trifluoromethyl)pyrimidin-2-yl]amino}pyridin-2-yl)-1,3-thiazol-2-yl]-2,3-dihydro-1H-indene-5-carboxylic acid]

test system: PGD2; assay: not given; settings: dosed intranasally, phase I/II study, allergic rhinitis; cited from earlier work

Compound	change in PGD2	clinical safety
Oc1cccc(Nc2ncc(F)c(Nc3cccc(O)c3)n2)c1 [Example R112]	statistically significant decrease in PGD2	safe across a range of indicators

test system: not given; assay: not given; settings: phase II clinical trial, allergic rhinitis; cited from earlier work

Compound	efficacy versus placebo
Oc1cccc(Nc2ncc(F)c(Nc3cccc(O)c3)n2)c1 [Example R112]	lack of efficacy versus placebo
